The target of one assay is T1, PACAP receptor type I (Homo sapiens, UniProt P41586).
T1 sequence (P41586 21-468): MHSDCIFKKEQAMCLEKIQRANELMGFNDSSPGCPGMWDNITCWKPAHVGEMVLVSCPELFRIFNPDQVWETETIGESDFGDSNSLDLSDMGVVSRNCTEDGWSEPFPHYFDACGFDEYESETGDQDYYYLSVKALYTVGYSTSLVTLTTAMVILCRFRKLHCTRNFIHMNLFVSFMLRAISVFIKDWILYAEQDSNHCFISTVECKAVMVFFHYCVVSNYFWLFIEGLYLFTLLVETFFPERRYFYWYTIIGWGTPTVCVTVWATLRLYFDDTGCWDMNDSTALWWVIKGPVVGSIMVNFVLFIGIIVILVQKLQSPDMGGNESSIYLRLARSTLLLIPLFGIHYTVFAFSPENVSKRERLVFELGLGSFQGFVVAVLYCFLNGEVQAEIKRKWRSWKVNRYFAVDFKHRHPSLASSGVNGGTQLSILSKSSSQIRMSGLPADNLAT
The conditions noted are these: cited from earlier work.

For another assay, the system named is PACAP receptor type II. The conditions noted are these: PACAP versus VIP; cited from earlier work.
Assay [1] has as its system CD 83 surface molecules on human dentritic cells. Description: Effect of VIP on maturation of human dentritic cells: CD 83 surface molecules, fluorescence-activated cell analysis. It is filed as cell-based. The source says:
(§1) FIGS. 1-11 show the effect of VIP on the maturation of human dentritic cells. […] is a characteristic surface protein on mature dentritic cells. Low rates of said protein indicate non-maturation of cells and thus, the inability to execute their biological function. […] Said reduction is indicated by the value M1 38.22—when measuring after application of 9.1 μmol—and compared to the value M1 81.26 (FIG. 10) of untreated cells (FIG. 1)—in the fluorescence-activated cell analysis. This procedure consists of searching the cell surfaces with the help of fluorescence-marked antibodies for the corresponding antigens (here: CD 83).

Assay [2] deals with MHC I surface molecules on human dentritic cells. Description: Effect of VIP on human dentritic cells: MHC I surface molecules, fluorescence-activated cell analysis. The assay is classed as cell-based.
The test system of assay [3] is MHC II surface molecules on human dentritic cells. The assay is described as follows: Effect of VIP on human dentritic cells: MHC II surface molecules, fluorescence-activated cell analysis. The assay is classed as cell-based.
Excerpt: [The procedure below names another target; the source lists this target under the same test.] as §1

The mark [4] stands for this setting: VIP 9.1 μM, marker All, FIG. 11.

On to “His-Ser-Asp-Gly-Ile-Phe-Thr-Asp-Ser-Tyr-Ser-Arg-Tyr-Arg-Lys-Gln-Met-Ala-Val-Lys-Lys-Tyr-Leu-Ala-Ala-Val-Leu-Gly-Lys-Arg-Tyr-Lys-Gln-Arg-Val-Lys-Asn-Lys [PACAP]”, for which the “affinity of receptor type I” value in the assay with PACAP receptor type I is “high affinity”. Besides, the “affinity of receptor type II” value in the assay with PACAP receptor type II is reported as “similar”.
As to “His-Ser-Asp-Ala-Val-Phe-Thr-Asp-Asn-Tyr-Thr-Arg-Leu-Arg-Lys-Gln-Met-Ala-Val-Lys-Lys-Tyr-Leu-Asn-Ser-Ile-Leu-Asn [VIP]”, in assay [1] (VIP 1 μM, FIG. 6), the “CD 83 % Gated, marker All” value turned out to be 100.00%; the “CD 83 Mean, marker All” value amounted to 108.13; the “CD 83 % Gated, marker M1” value was 69.70%; the “CD 83 Mean, marker M1” value turned out to be 137.30. In assay [1] (VIP 9.1 μM, FIG. 10), the “CD 83 % Gated, marker All” value is 100.00%; the “CD 83 Mean, marker All” value is recorded as 76.48; the “CD 83 % Gated, marker M1” value is 38.22%; the “CD 83 Mean, marker M1” value is recorded as 143.06. In assay [1] (after application of 9.1 μmol VIP, untreated cells 81.26), the “value M1 for CD 83” value was determined as 38.22. The “effect on CD 83 surface molecules” value in assay [1] (application of 1 μmol VIP (FIG. 5)) was “dramatic reduction”. Also, the “effect on CD 83 surface molecules” value in assay [1] (application of 9.1 μmol VIP (FIG. 9)) is “dramatic reduction”. Further, the “affinity of receptor type I” value in the assay with PACAP receptor type I is “very low affinity”. The “value M1 for MHC 1” value in assay [2] (9.1 μmol VIP, untreated cells 85.59) is recorded as 70.57. Also, in assay [2] (VIP 1 μM, marker All, FIG. 7), the “MHC I % Gated, marker All” value was 100.00% and the “MHC I Mean, marker All” value is on record as 200.61. For the same substance, in assay [2] (VIP 1 μM, marker M1, FIG. 7), the “MHC I % Gated, marker M1” value was determined as 78.69% and the “MHC I Mean, marker M1” value is reported as 242.97. In assay [2] (setting [4]), the “MHC 1 % Gated, marker All” value is 100.00% and the “MHC 1 Mean, marker All” value was found to be 136.67. In addition, in assay [2] (VIP 9.1 μM, marker M1, FIG. 11), the “MHC 1 % Gated, marker M1” value was found to be 70.57% and the “MHC 1 Mean, marker M1” value is listed as 174.61. The “inhibition of MHC I surface molecules compared with CD 83” value in assay [2] (same dose of VIP) is given as “far less inhibited”. The “affinity of receptor type II” value in the assay with PACAP receptor type II was “similar”. The “value M1 for MHC II” value in assay [3] (9.1 μmol VIP, untreated cells 83.94) was determined as 77.73. Also, in assay [3] (VIP 1 μM, FIG. 8), the “MHC II % Gated, marker All” value is on record as 100.00%; the “MHC II Mean, marker All” value is recorded as 170.33; the “MHC II % Gated, marker M1” value is 77.41%; the “MHC II Mean, marker M1” value amounted to 207.21. In assay [3] (VIP 9.1 μM, FIG. 12), the “MHC II % Gated, marker All” value was determined as 100.00%; the “MHC II Mean, marker All” value was determined as 175.73; the “MHC II % Gated, marker M1” value is given as 77.73%; the “MHC II Mean, marker M1” value is recorded as 213.25. The “inhibition of MHC II surface molecules compared with CD 83” value in assay [3] (same dose of VIP) was “far less inhibited”.

The record behind these values is patent US7468353B2, “Biologically active substance of a vasoactive intestinal peptide for treating interstitial lung diseases” (Mondobiotech Laboratories Anstalt, priority 2003, dated 2008).
